Legend:
[1] = system: MiaPaca-2 (expressing KRAS G12C mutant); assay: Proliferation Assay (Cell Viability Assay); format: cell-based; details: Homo sapiens, MIA PaCa-2; read-out: Proliferation in MiaPaca-2: IC50
Method in brief: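 MiaPaca-2 cells (KRAS G12C) were grown in DMEM-high glucose with 10% FBS, seeded at 2000–5000 cells/well and cultured overnight. Compounds were added at 10 μM final, or as serial dilutions for IC50, in 0.3% DMSO/10% FBS for 2–4 days at 37 °C, 5% CO2. Viability was measured with CellTiter 96 Aqueous One and % inhibition calculated.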

Akt phosphorylation = assay: Akt Phosphorylation Assay (western blot), Panc-1; format: cell-based, human; details: at 10 μM, * = activation
Method in brief: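 Panc-1 (KRas G12D) cells were treated with compound at 10 μM final (0.3% DMSO) for 6 h at 37 °C, or with serial dilutions for IC50. Cells were either serum-starved overnight in 0.5% FBS and then stimulated with 1.5 ng/ml EGF for 15 min, or kept in 10% FBS without stimulation. Akt Ser473 phosphorylation in lysates was read by western blot.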

IC50 [1] | SMILES | % inh of Akt phosphorylation in Panc-1 (Akt phosphorylation)
< 150 nM | COc1cc(Nc2nc(-c3nccn3C)nn3cc(-c4ccn(C(F)F)n4)c(C)c23)ncn1 [Compound 98, 6-(1-(Difluoromethyl)-1H-pyrazol-3-yl)-N-(6-methoxypyrimidin-4-yl)-5-methyl-2-(1-methyl-1H-imidazol-2-yl)pyrrolo[2,1-f][1,2,4]triazin-4-amine] | D* (85-100% activation)
< 150 nM | COc1ccnc(Nc2nc(-c3nccn3C)nn3cc(-c4ccn(C)n4)c(C)c23)n1.Cl [Compound 114, N-(4-Methoxypyrimidin-2-yl)-5-methyl-2-(1-methyl-1H-imidazol-2-yl)-6-(1-methyl-1H-pyrazol-3-yl)pyrrolo[2,1-f][1,2,4]triazin-4-amine hydrochloride salt] | D* (85-100% activation)
< 150 nM | Cc1c(-c2ccn(C3CC3)n2)cn2nc(-c3nccn3C)nc(Nc3ccccn3)c12 [Compound 143, 6-(1-Cyclopropyl-1H-pyrazol-3-yl)-5-methyl-2-(1-methyl-1H-imidazol-2-yl)-N-(pyridin-2-yl)pyrrolo[2,1-f][1,2,4]triazin-4-amine] | D* (85-100% activation)
> 1000 nM | Cc1c(-c2ccn(C3CC3)n2)cn2nc(-c3nccn3C)nc(Nc3cc(OCCCN(C)C)ccn3)c12 [Compound 148, 6-(1-Cyclopropyl-1H-pyrazol-3-yl)-N-(4-(3-(dimethylamino)propoxy)pyridin-2-yl)-5-methyl-2-(1-methyl-1H-imidazol-2-yl)pyrrolo[2,1-f][1,2,4]triazin-4-amine] | A (1-25% inhibition)
> 1000 nM | CO[C@@H]1CC[C@@H](Nc2nc(-c3nccn3C)nn3cc(-c4ccn(C)n4)c(C)c23)C1 (racemic) [Compound 132, rac N-((1R,3R)-3-Methoxycyclopentyl)-5-methyl-2-(1-methyl-1H-imidazol-2-yl)-6-(1-methyl-1H-pyrazol-3-yl)pyrrolo[2,1-f][1,2,4]triazin-4-amine] | A (1-25% inhibition)
150 to 500 nM | Cc1c(-c2ccn(C(C)C)n2)cn2nc(-c3nccn3C)nc(Nc3ncc[nH]3)c12 [Compound 125, N-(1H-Imidazol-2-yl)-6-(1-isopropyl-1H-pyrazol-3-yl)-5-methyl-2-(1-methyl-1H-imidazol-2-yl)pyrrolo[2,1-f][1,2,4]triazin-4-amine] | D* (85-100% activation)
< 150 nM | COc1cccnc1Nc1nc(-c2nccn2C)nn2cc(-c3ccn(C)n3)c(C)c12 [Compound 112, N-(3-Methoxypyridin-2-yl)-5-methyl-2-(1-methyl-1H-imidazol-2-yl)-6-(1-methyl-1H-pyrazol-3-yl)pyrrolo[2,1-f][1,2,4]triazin-4-amine] | D* (85-100% activation)
< 150 nM | Cc1c(-c2ccn(C)n2)cn2nc(-c3nccn3C)nc(Nc3cc(OCC(F)(F)F)ccn3)c12 [Compound 129, 5-Methyl-2-(1-methyl-1H-imidazol-2-yl)-6-(1-methyl-1H-pyrazol-3-yl)-N-(4-(2,2,2-trifluoroethoxy)pyridin-2-yl)pyrrolo[2,1-f][1,2,4]triazin-4-amine] | C* (46-84% activation)
> 1000 nM | Cc1c(-c2ccn(C3CC3)n2)cn2nc(-c3nccn3C)nc(Nc3cc(O)ccn3)c12 [Compound 150, 2-((6-(1-Cyclopropyl-1H-pyrazol-3-yl)-5-methyl-2-(1-methyl-1H-imidazol-2-yl)pyrrolo[2,1-f][1,2,4]triazin-4-yl)amino)pyridin-4-ol] | B* (26-49% activation)
510 to 1000 nM | Cc1c(-c2ccn(C(C)C)n2)cn2nc(-c3nccn3C)nc(Nc3nccc(OCCO)n3)c12 [Compound 121, 2-((2-((6-(1-Isopropyl-1H-pyrazol-3-yl)-5-methyl-2-(1-methyl-1H-imidazol-2-yl)pyrrolo[2,1-f][1,2,4]triazin-4-yl)amino)pyrimidin-4-yl)oxy)ethan-1-ol] | B* (26-49% activation)

Reference: patent publication US12459951B2, “Compounds that interact with RAS superfamily proteins for treatment of cancers, inflammatory diseases, rasopathies, and fibrotic disease” (SHY Therapeutics, LLC, priority 2022, dated 2025)
